From patent US20220062240A1, “METHODS OF TREATING CANCER USING A CLK INHIBITOR” (BioSplice Therapeutics, Inc., priority 2018, published 2022)
Like-named read-outs stand apart in the source and are kept apart here.

Experiments:
Type in all cases: cell-based
[1] = system: pancreatic cancer (8 cell lines); experiment: CellTiter-Glo Viability Assay, pancreatic cancer; settings: Homo sapiens, inhibition of cancer cell proliferation
[2] = system: colorectal cancer (6 cell lines); experiment: CellTiter-Glo Viability Assay, colorectal cancer; settings: Homo sapiens, inhibition of cancer cell proliferation
[3] = system: lung cancer (4 cell lines); experiment: CellTiter-Glo Viability Assay, lung cancer; settings: Homo sapiens, inhibition of cancer cell proliferation
[4] = system: prostate cancer (5 cell lines); experiment: CellTiter-Glo Viability Assay, prostate cancer; settings: Homo sapiens
[5] = system: ovarian cancer (4 cell lines); experiment: CellTiter-Glo Viability Assay, ovarian cancer; settings: Homo sapiens, inhibition of cancer cell proliferation
T47D = experiment: CellTiter-Glo Viability Assay, breast cancer; settings: Homo sapiens, 96 h, breast cancer, four days, read-out: EC50
ZR-75-1 = experiment: CellTiter-Glo Viability Assay, breast cancer; settings: Homo sapiens, 96 h; ZR-75-1, breast cancer, four days; read-out: EC50
DU4475 = experiment: CellTiter-Glo Viability Assay, breast cancer; settings: Homo sapiens, DU-4475, 96 h; DU4475, breast cancer, four days; read-out: EC50
HCC1599 = experiment: CellTiter-Glo Viability Assay, breast cancer; settings: Homo sapiens, 96 h; HCC1599, breast cancer, four days; read-out: EC50
MCF7 = experiment: CellTiter-Glo Viability Assay, breast cancer; settings: Homo sapiens, 96 h; MCF7, breast cancer, four days; read-out: EC50
MDA-MB-231-Luc = experiment: CellTiter-Glo Viability Assay, breast cancer; settings: Homo sapiens, 96 h; MDA-MB-231-Luc, breast cancer, four days; read-out: EC50
CAMA1 = experiment: CellTiter-Glo Viability Assay, breast cancer; settings: Homo sapiens, CAMA-1, 96 h; CAMA1, breast cancer, four days; read-out: EC50
BT-549 = experiment: CellTiter-Glo Viability Assay, breast cancer; settings: Homo sapiens, 96 h; BT-549, breast cancer, four days; read-out: EC50
[6] = system: liver cancer (3 cell lines); experiment: CellTiter-Glo Viability Assay, liver cancer; settings: Homo sapiens, inhibition of cancer cell proliferation
all 50 cell lines = experiment: CellTiter-Glo Viability Assay, average across all cell lines; settings: Homo sapiens; across all 50 cell lines; read-out: average EC50 for inhibition of cancer cell proliferation
How it was run: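 Human cancer cell lines from breast, colorectal, haematopoietic/lymphoid, liver, lung, ovarian, pancreatic and prostate tumours were seeded at 300-3,000 cells/well and exposed to compound in duplicate for four days at 37° C, 5% CO2. Viable cells were measured by ATP luminescence; EC50 values came from dose-response curves.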

[7] = system: haematopoietic & lymphoid tumors (13 cell lines); experiment: CellTiter-Glo Viability Assay, haematopoietic & lymphoid tumors; settings: Homo sapiens, inhibition of cancer cell proliferation
[8] = BXPC-3, BxPC3 cell line, read-out: Pancreatic cancer, EC50 BxPC3
[9] = CAPAN-1, Capan1 cell line, read-out: Pancreatic cancer, EC50 Capan1
[10] = Capan-2, Capan2 cell line, read-out: Pancreatic cancer, EC50 Capan2
[11] = MIA PaCa-2 cell line, read-out: Pancreatic cancer, EC50 MIA PaCa-2
[12] = PANC 05.04 cell line, read-out: Pancreatic cancer, EC50 PANC 05.04
[13] = PANC-1 cell line, read-out: Pancreatic cancer, EC50 PANC-1
[14] = UPAFII cell line, read-out: Pancreatic cancer, EC50 UPAFII
[15] = SW480 cell line, read-out: Colorectal cancer, EC50 (μM) SW480
[16] = A-427, A427 cell line, read-out: Lung cancer, EC50 (μM) A427
[17] = HCC78, HCC-78 cell line, read-out: Lung cancer, EC50 (μM) HCC-78
[18] = NCI-H460 cell line, read-out: Lung cancer, EC50 (μM) NCI-H460
[19] = NCI-H522 cell line, read-out: Lung cancer, EC50 (μM) NCI-H522
[20] = DU-145, read-out: Prostate cancer EC50 Du-145
[21] = PC-3, PC3 cell line, inhibition of cancer cell proliferation, read-out: Prostate cancer EC50 PC3
[22] = 22Rv1 cell line, inhibition of cancer cell proliferation, read-out: Prostate cancer EC50 22Rv1
[23] = LNCap clone FGC cell line, inhibition of cancer cell proliferation, read-out: Prostate cancer EC50 LNCap clone FGC
[24] = VCaP (Sigma) cell line, inhibition of cancer cell proliferation, read-out: Prostate cancer EC50 VCaP (Sigma)
[25] = PA-1, PA1 cell line, read-out: Ovarian cancer, EC50 (μM) PA1
[26] = TOV112D, TOV-112D cell line, read-out: Ovarian cancer, EC50 (μM) TOV-112D
[27] = OV-90 cell line, read-out: Ovarian cancer, EC50 (μM) OV-90
[28] = OVCAR-3 cell line, read-out: Ovarian cancer, EC50 (μM) OVCAR-3
[29] = SNU-398, SNU398 cell line, read-out: Liver cancer, EC50 SNU398
[30] = HEPG2 cell line, read-out: Liver cancer, EC50 HEPG2
[31] = PLC/PRF/5 cell line, read-out: Liver cancer, EC50 PLC/PRF/5
[32] = DND41, DND-41 cell line, read-out: Haematopoietic & Lymphoid tumors, EC50 (μM) DND-41
[33] = MV4-11, MV-4-11 cell line, read-out: Haematopoietic & Lymphoid tumors, EC50 (μM) MV-4-11
[34] = Rec1, REC-1 cell line, read-out: Haematopoietic & Lymphoid tumors, EC50 (μM) REC-1
[35] = SU-DHL-4, SUDHL4 cell line, read-out: Haematopoietic & Lymphoid tumors, EC50 (μM) SUDHL4
[36] = HL-60 cell line, read-out: Haematopoietic & Lymphoid tumors, EC50 (μM) HL-60
[37] = JM1 cell line, read-out: Haematopoietic & Lymphoid tumors, EC50 (μM) JM1
[38] = JURKAT, Clone E6-1 cell line, read-out: Haematopoietic & Lymphoid tumors, EC50 (μM) JURKAT, Clone E6-1
[39] = JeKo-1 cell line, read-out: Haematopoietic & Lymphoid tumors, EC50 (μM) JeKo-1
[40] = KASUMI-1 cell line, read-out: Haematopoietic & Lymphoid tumors, EC50 (μM) KASUMI-1
[41] = Loucy cell line, read-out: Haematopoietic & Lymphoid tumors, EC50 (μM) Loucy
[42] = MOLT-4 cell line, read-out: Haematopoietic & Lymphoid tumors, EC50 (μM) MOLT-4
[43] = TF-1 cell line, read-out: Haematopoietic & Lymphoid tumors, EC50 (μM) TF-1
[44] = TOLEDO cell line, read-out: Haematopoietic & Lymphoid tumors, EC50 (μM) TOLEDO

Cc1n[nH]c2ccc(-c3cncc(N[C@H]4CC[C@H](O)CC4)n3)cc12 [Compound 65]
EC50 [1, 8]: 0.678 µM
EC50 [1, 9]: 0.353 µM
EC50 [1, 10]: 0.76 µM
EC50 [1, 11]: 0.539 µM
EC50 [1, 12]: 1.28 µM
EC50 [1, 13]: 1.49 µM
EC50 [1, 14]: 0.594 µM
EC50 [2, 15]: 0.456 µM
EC50 [3, 16]: 0.26 µM
EC50 [3, 17]: 1.19 µM
EC50 [3, 18]: 0.81 µM
EC50 [3, 19]: 0.379 µM
EC50 [4, 20]: 0.665 µM
EC50 [4, 21]: 0.557 µM
EC50 [4, 22]: 0.803 µM
EC50 [4, 23]: 0.508 µM
EC50 [4, 24]: 2.94 µM
EC50 [5, 25]: 0.146 µM
EC50 [5, 26]: 0.437 µM
EC50 [5, 27]: 0.918 µM
EC50 [5, 28]: 0.645 µM
EC50 (T47D): 0.886 µM
EC50 (ZR-75-1): 0.617 µM
EC50 (DU4475): 0.114 µM
EC50 (HCC1599): 0.209 µM
EC50 (MCF7): 0.989 µM
EC50 (MDA-MB-231-Luc): 0.106 µM
EC50 (CAMA1): 0.457 µM
EC50 (BT-549): 0.414 µM
EC50 [6, 29]: 0.132 µM
EC50 [6, 30]: 0.667 µM
EC50 [6, 31]: 1.26 µM
EC50 (all 50 cell lines): 0.615 µM
EC50 [7, 32]: 0.635 µM
EC50 [7, 33]: 0.008 µM
EC50 [7, 34]: 0.085 µM
EC50 [7, 35]: 0.309 µM
EC50 [7, 36]: 1.01 µM
EC50 [7, 37]: 0.319 µM
EC50 [7, 38]: 0.78 µM
EC50 [7, 39]: 0.243 µM
EC50 [7, 40]: 0.184 µM
EC50 [7, 41]: 0.576 µM
EC50 [7, 42]: 0.715 µM
EC50 [7, 43]: 0.392 µM
EC50 [7, 44]: 0.141 µM

CN1CCN(c2cc(C(=O)Nc3cc4cc(-c5cnn(C)c5N)ccc4cn3)ccn2)CC1 [Compound 75]
EC50 [1, 8]: 0.284 µM
EC50 [1, 9]: 0.152 µM
EC50 [1, 10]: 0.289 µM
EC50 [1, 11]: 0.084 µM
EC50 [1, 12]: 0.138 µM
EC50 [1, 13]: 0.251 µM
EC50 [1, 14]: 0.083 µM
EC50 ([2]; HCT-116, HCT116 cell line, read-out: Colorectal cancer, EC50 (μM) HCT116): 0.102 µM
EC50 ([2]; HT-29, HT29 cell line, read-out: Colorectal cancer, EC50 (μM) HT29): 0.187 µM
EC50 ([2]; SW-620, SW620 cell line, read-out: Colorectal cancer, EC50 (μM) SW620): 0.067 µM
EC50 ([2]; DLD-1 cell line, read-out: Colorectal cancer, EC50 (μM) DLD-1): 0.141 µM
EC50 ([2]; SW48 cell line, read-out: Colorectal cancer, EC50 (μM) SW48): 0.051 µM
EC50 [2, 15]: 0.143 µM
EC50 [3, 16]: 0.114 µM
EC50 [3, 17]: 0.19 µM
EC50 [3, 18]: 0.196 µM
EC50 [3, 19]: 0.079 µM
EC50 [4, 20]: 0.208 µM
EC50 [4, 21]: 0.159 µM
EC50 [4, 22]: 0.113 µM
EC50 [4, 23]: 0.305 µM
EC50 [4, 24]: 0.333 µM
EC50 [5, 25]: 0.12 µM
EC50 [5, 26]: 0.108 µM
EC50 [5, 27]: 0.256 µM
EC50 [5, 28]: 0.067 µM
EC50 (T47D): 0.246 µM
EC50 (ZR-75-1): 0.177 µM
EC50 (DU4475): 0.123 µM
EC50 (HCC1599): 0.091 µM
EC50 (MCF7): 0.483 µM
EC50 (MDA-MB-231-Luc): 0.188 µM
EC50 (CAMA1): 0.216 µM
EC50 (BT-549): 0.169 µM
EC50 [6, 29]: 0.034 µM
EC50 [6, 30]: 0.13 µM
EC50 [6, 31]: 0.301 µM
EC50 (all 50 cell lines): 0.167 µM
EC50 [7, 32]: 0.154 µM
EC50 [7, 33]: 0.042 µM
EC50 [7, 34]: 0.045 µM
EC50 [7, 35]: 0.155 µM
EC50 [7, 36]: 0.449 µM
EC50 [7, 37]: 0.044 µM
EC50 [7, 38]: 0.333 µM
EC50 [7, 39]: 0.046 µM
EC50 [7, 40]: 0.119 µM
EC50 [7, 41]: 0.142 µM
EC50 [7, 42]: 0.162 µM
EC50 [7, 43]: 0.225 µM
EC50 [7, 44]: 0.046 µM
